One assay concerns gastric lesions in rats. To be noted: lesions induced by taurocholate acid, aspirin or indomethacin, J. Pharmacol. Exp. Ther. 1992, 263(1), 374-380; cited from earlier work.
Assay [1] concerns the target T1, EP1 receptors (Homo sapiens, UniProt P34995).
T1 sequence (P34995 1-402): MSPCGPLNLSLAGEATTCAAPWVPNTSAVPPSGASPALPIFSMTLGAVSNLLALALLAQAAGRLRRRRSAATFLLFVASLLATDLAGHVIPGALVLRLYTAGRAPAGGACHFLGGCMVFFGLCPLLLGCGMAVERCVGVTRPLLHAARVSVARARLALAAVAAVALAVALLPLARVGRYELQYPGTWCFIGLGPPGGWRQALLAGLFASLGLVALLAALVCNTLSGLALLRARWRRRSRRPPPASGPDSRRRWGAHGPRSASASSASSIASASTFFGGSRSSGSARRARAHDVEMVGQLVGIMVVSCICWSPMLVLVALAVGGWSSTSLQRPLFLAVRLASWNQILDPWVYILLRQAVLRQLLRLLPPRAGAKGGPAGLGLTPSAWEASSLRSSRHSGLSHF
As to the kind of experiment: human EP1 calcium mobilisation assay (CHO-K1 cells, FLIPR, PGE2). To be noted: free bases or sodium salts; averages of a number of experiments; read-out: functional pKi value, human EP1 calcium mobilisation assay (converted). On the set-up: expressed in transfected cells; host or cells: CHO-K1 cells, pCIN vector. Type of assay: cell-based. The method in brief: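 CHO-K1 cells stably transfected with human EP1 cDNA, loaded with Fluo-4 AM after 24 h culture at 37° C. Compounds added first, then PGE2; antagonism read as inhibition of PGE2-induced intracellular calcium rise on FLIPR. pIC50 taken as concentration giving half-maximal inhibition, from curve fitting.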
A general note: A change in cytosolic calcium serves as a functional read-out for many receptors and channels.

For assay [2], the target named is T1, EP1 receptors. As to the kind of experiment: Binding assay for the human prostanoid EP1 receptor (competition with [3H]-PGE2). Set-up: expressed in transfected cells; host or cells: CHO-K1 cells, membrane fraction. To be noted: [3H]-PGE2 competition; averages of a number of experiments; read-out: pIC50 value, binding assay for the human prostanoid EP1 receptor (converted). An outline of the steps:
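Membranes from CHO-K1 cells stably expressing human EP1 incubated with compounds and [3H]-PGE2 (3 nM final) for 30 min at 30° C in MES buffer with EDTA and MgCl2, pH 6. Bound radioactivity measured after filtration; IC50 from nonlinear fit of specific binding inhibition.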

The subject of assay [3] is rodent model of post-operative pain. To be noted: Anesthesia and Analgesia 2001, 92, 233-238; cited from earlier work.
Assay [4] relates to rat model of chronic constriction injury. To be noted: Anesthesia and Analgesia 2001, 93, 1012-7; cited from earlier work.

A value given as a limit tells only on which side of the number the result lay.

Consider `O=C(O)Cc1ccc(CCNS(=O)(=O)c2ccc(Cl)cc2)cc1` [BM 13505], for which, in the assay with gastric lesions in rats, the gastric lesions result is given as “inhibit gastric lesions”. With `CC(C)COc1ccc(Cl)cc1Nc1nc(-c2nc3ccc(CN4CCN(C)CC4)cc3[nH]2)cs1` [Example 183, N-{5-Chloro-2-[(2-methylpropyl)oxy]phenyl}-4-{5-[(4-methyl-1-piperazinyl)methyl]-1H-benzimidazol-2-yl}-1,3-thiazol-2-amine], the Ki at EP1 receptors [1] is less than 1000 nM. The IC50 at EP1 receptors [2] was no more than 31.6 nM. In the case of `Cc1cc(Cl)ccc1S(=O)(=O)NC[C@H]1C2CCC(CC2)[C@@H]1/C=C\CCCC(=O)O` [ONO-8711], the mechanical hyperalgesia entry in assay [3] is reported as “inhibits mechanical hyperalgesia”. In addition, the hyperalgesia and allodynia entry in assay [4] was “reduces hyperalgesia and allodynia”. With `O=C(O)CCc1ccccc1CC1C2CCC(O2)C1c1nc(C(=O)NCCCCC2CCCCC2)co1` (stereo not drawn) [SQ 33961], in the assay on gastric lesions in rats, the gastric lesions result is “inhibit gastric lesions”.

Values taken from patent US20080207708A1, “Oxazole and Thiazole Compounds and Their Use in the Treatment of Pge2 Mediated Disorders” (GLAXO GROUP LIMITED, priority 2005, published 2008).
